Reference: PubChem BioAssay (NCI)
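Here, GI50 denotes the concentration required for 50% inhibition of growth. At the TGI there is no net growth.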

Experiments:
Test in all cases: inhibition of tumour cell growth, NCI panel, 384-well format
OVCAR-3 ovarian = test system: OVCAR-3 ovarian
LOX IMVI melanoma = test system: LOX IMVI melanoma
HOP-92 NSCLC = test system: HOP-92 NSCLC
SK-MEL-2 melanoma = test system: SK-MEL-2 melanoma
EKVX NSCLC = test system: EKVX NSCLC
SF-295 CNS = test system: SF-295 CNS
UACC-257 melanoma = test system: UACC-257 melanoma
A549 NSCLC = test system: A549 NSCLC
OVCAR-8 ovarian = test system: OVCAR-8 ovarian
SW-620 colon = test system: SW-620 colon
SNB-75 CNS = test system: SNB-75 CNS
TK-10 renal = test system: TK-10 renal
MDA-MB-435 melanoma = test system: MDA-MB-435 melanoma
RPMI-8226 leukemia = test system: RPMI-8226 leukemia
K-562 leukemia = test system: K-562 leukemia
U251 glioblastoma = test system: U251 glioblastoma
BT-549 breast = test system: BT-549 breast
SK-MEL-28 melanoma = test system: SK-MEL-28 melanoma
MDA-MB-231 breast = test system: MDA-MB-231 breast
SF-268 CNS = test system: SF-268 CNS
HCT-116 colon = test system: HCT-116 colon
HS 578T breast = test system: HS 578T breast
HT29 colon = test system: HT29 colon
UACC-62 melanoma = test system: UACC-62 melanoma
DU-145 prostate = test system: DU-145 prostate
HOP-62 NSCLC = test system: HOP-62 NSCLC
MOLT-4 leukemia = test system: MOLT-4 leukemia
SR leukemia = test system: SR leukemia
NCI/ADR-RES ovarian = test system: NCI/ADR-RES ovarian
NCI-H23 lung = test system: NCI-H23 lung
HL-60(TB) leukemia = test system: HL-60(TB) leukemia
SK-MEL-5 melanoma = test system: SK-MEL-5 melanoma
MCF7 breast = test system: MCF7 breast
IGROV1 ovarian = test system: IGROV1 ovarian
CAKI-1 renal = test system: CAKI-1 renal
SF-539 CNS = test system: SF-539 CNS
OVCAR-4 ovarian = test system: OVCAR-4 ovarian
CCRF-CEM leukemia = test system: CCRF-CEM leukemia
COLO 205 colon = test system: COLO 205 colon
KM12 colon = test system: KM12 colon
MDA-MB-468 breast = test system: MDA-MB-468 breast
SN12C renal = test system: SN12C renal
HCT-15 colon = test system: HCT-15 colon
UO-31 renal = test system: UO-31 renal
ACHN renal = test system: ACHN renal
RXF 393 renal = test system: RXF 393 renal
PC-3 prostate = test system: PC-3 prostate
OVCAR-5 ovarian = test system: OVCAR-5 ovarian
M14 melanoma = test system: M14 melanoma
NCI-H460 NSCLC = test system: NCI-H460 NSCLC
SNB-19 CNS = test system: SNB-19 CNS
HCC-2998 colon = test system: HCC-2998 colon
NCI-H322M lung = test system: NCI-H322M lung
SK-OV-3 ovarian = test system: SK-OV-3 ovarian
A498 renal = test system: A498 renal
NCI-H522 lung = test system: NCI-H522 lung
T-47D breast = test system: T-47D breast
786-0 renal = test system: 786-0 renal
NCI-H226 lung = test system: NCI-H226 lung
MALME-3M melanoma = test system: MALME-3M melanoma

`Cn1cc(-c2ccc(-c3ccc(C4=NC5(CC5)C(=O)N4C[C@@H]4CCN(C(=O)C5CC5)C4)cc3)cc2)cn1` showed a GI50 (OVCAR-3 ovarian) of 13.5 µM, a TGI (OVCAR-3 ovarian) of 31.2 µM and a GI50 (LOX IMVI melanoma) of 2.48 µM. For the same compound, the TGI (LOX IMVI melanoma) was 14 µM, the GI50 (HOP-92 NSCLC) was 21.2 µM and the TGI (HOP-92 NSCLC) was 59.1 µM. The GI50 (SK-MEL-2 melanoma) was 21.9 µM, the TGI (SK-MEL-2 melanoma) was 41.8 µM and the GI50 (EKVX NSCLC) was 33.3 µM. The TGI (EKVX NSCLC) was 98.2 µM, the GI50 (SF-295 CNS) was 14.3 µM and the TGI (SF-295 CNS) was greater than 81.6 µM. For the same compound, the GI50 (UACC-257 melanoma) was 38.4 µM, the TGI (UACC-257 melanoma) was greater than 74.7 µM and the GI50 (A549 NSCLC) was 20.2 µM. For the same compound, the TGI (A549 NSCLC) was greater than 100 µM, the GI50 (OVCAR-8 ovarian) was 13.4 µM and the TGI (OVCAR-8 ovarian) was 41.6 µM. The GI50 (SW-620 colon) was 19.4 µM, the TGI (SW-620 colon) was greater than 67.9 µM and the GI50 (SNB-75 CNS) was 21.5 µM. For the same compound, the TGI (SNB-75 CNS) was greater than 87.7 µM, the GI50 (TK-10 renal) was 27.5 µM and the TGI (TK-10 renal) was greater than 100 µM. It also gave a GI50 (MDA-MB-435 melanoma) of 16.1 µM, a TGI (MDA-MB-435 melanoma) of 41.4 µM and a TGI (RPMI-8226 leukemia) of 9.91 µM. For the same compound, the GI50 (K-562 leukemia) was 6.43 µM, the TGI (K-562 leukemia) was greater than 95.4 µM and the GI50 (U251 glioblastoma) was 10.2 µM. The TGI (U251 glioblastoma) was 38.1 µM, the GI50 (BT-549 breast) was 0.827 µM and the TGI (BT-549 breast) was 30.1 µM. The GI50 (SK-MEL-28 melanoma) was 27.8 µM, the TGI (SK-MEL-28 melanoma) was greater than 74.8 µM and the GI50 (MDA-MB-231 breast) was 12.3 µM. The TGI (MDA-MB-231 breast) was 56.1 µM, the GI50 (SF-268 CNS) was 18.4 µM and the TGI (SF-268 CNS) was greater than 88.4 µM. The GI50 (HCT-116 colon) was 4.95 µM, the TGI (HCT-116 colon) was 27.6 µM and the GI50 (HS 578T breast) was 10.5 µM. The TGI (HS 578T breast) was 39.1 µM, the GI50 (HT29 colon) was 28.1 µM and the TGI (HT29 colon) was greater than 100 µM. For the same compound, the GI50 (UACC-62 melanoma) was 8.91 µM, the TGI (UACC-62 melanoma) was 22.5 µM and the GI50 (DU-145 prostate) was 14.6 µM. The TGI (DU-145 prostate) was 59.6 µM, the GI50 (HOP-62 NSCLC) was 8.82 µM and the TGI (HOP-62 NSCLC) was 26.4 µM. It also gave a GI50 (MOLT-4 leukemia) of 11 µM, a TGI (MOLT-4 leukemia) of 23.2 µM and a GI50 (SR leukemia) of 0.0145 µM. For the same compound, the TGI (SR leukemia) was 0.0828 µM, the GI50 (NCI/ADR-RES ovarian) was 14.2 µM and the TGI (NCI/ADR-RES ovarian) was 36.2 µM. It also gave a GI50 (NCI-H23 lung) of 14.9 µM, a TGI (NCI-H23 lung) of 37.7 µM and a GI50 (HL-60(TB) leukemia) of 0.0689 µM. For the same compound, the TGI (HL-60(TB) leukemia) was 16.3 µM, the GI50 (SK-MEL-5 melanoma) was 15.5 µM and the TGI (SK-MEL-5 melanoma) was 37 µM. It also gave a GI50 (MCF7 breast) of 3.21 µM, a TGI (MCF7 breast) greater than 100 µM and a GI50 (IGROV1 ovarian) of 25.6 µM. It also gave a TGI (IGROV1 ovarian) greater than 100 µM, a GI50 (CAKI-1 renal) of 1.99 µM and a GI50 (SF-539 CNS) of 13.7 µM. For the same compound, the TGI (SF-539 CNS) was greater than 56.4 µM, the GI50 (OVCAR-4 ovarian) was 8.64 µM and the TGI (OVCAR-4 ovarian) was 59.1 µM. For the same compound, the GI50 (CCRF-CEM leukemia) was 11.7 µM, the TGI (CCRF-CEM leukemia) was 24.3 µM and the GI50 (COLO 205 colon) was 25.7 µM. For the same compound, the TGI (COLO 205 colon) was greater than 100 µM, the GI50 (KM12 colon) was 6.95 µM and the TGI (KM12 colon) was greater than 100 µM. The GI50 (MDA-MB-468 breast) was 15.8 µM, the TGI (MDA-MB-468 breast) was 38.4 µM and the GI50 (SN12C renal) was 17.1 µM. The TGI (SN12C renal) was 83.8 µM, the GI50 (HCT-15 colon) was 5.68 µM and the TGI (HCT-15 colon) was greater than 62.9 µM. The GI50 (UO-31 renal) was 1.06 µM, the TGI (UO-31 renal) was 2.43 µM and the GI50 (ACHN renal) was 18.7 µM. The TGI (ACHN renal) was greater than 90.1 µM, the GI50 (RXF 393 renal) was 14.4 µM and the TGI (RXF 393 renal) was 40.7 µM. It also gave a GI50 (PC-3 prostate) of 20.4 µM, a TGI (PC-3 prostate) of 49 µM and a GI50 (OVCAR-5 ovarian) of 23.4 µM. The TGI (OVCAR-5 ovarian) was greater than 100 µM, the GI50 (M14 melanoma) was 24.7 µM and the TGI (M14 melanoma) was greater than 79.5 µM. For the same compound, the GI50 (NCI-H460 NSCLC) was 1.21 µM, the TGI (NCI-H460 NSCLC) was 2.97 µM and the GI50 (SNB-19 CNS) was 26.4 µM. It also gave a TGI (SNB-19 CNS) greater than 90.1 µM, a GI50 (HCC-2998 colon) of 23.7 µM and a TGI (HCC-2998 colon) greater than 79.9 µM. For the same compound, the GI50 (NCI-H322M lung) was 20 µM, the TGI (NCI-H322M lung) was 75.5 µM and the GI50 (SK-OV-3 ovarian) was 30 µM. The TGI (SK-OV-3 ovarian) was greater than 89.9 µM, the GI50 (A498 renal) was 17.6 µM and the TGI (A498 renal) was greater than 56.1 µM. The GI50 (NCI-H522 lung) was 12.6 µM, the TGI (NCI-H522 lung) was 29.6 µM and the GI50 (T-47D breast) was 11.9 µM. For the same compound, the TGI (T-47D breast) was 43.9 µM, the GI50 ([…]-0 renal) was 12.8 µM and the TGI (786-0 renal) was 31.8 µM. It also gave a GI50 (NCI-H226 lung) of 19 µM, a TGI (NCI-H226 lung) of 97.2 µM and a GI50 (MALME-3M melanoma) of 23 µM. For the same compound, the TGI (MALME-3M melanoma) was 65.1 µM.
